This experiment concerns the target Recombinant GMPPNP-loaded KRAS G12C (KRAS-G12C(ON), active form) (Homo sapiens, UniProt P01116, G12C). The experiment in a line: KRAS G12C RAF Disruption Assay (HTRF). In kind it is biochemical. The following applies: GMPPNP-loaded KRAS G12C 5 nM, GST-RAF1 RBD 9 nM, read-out: KRASG12C RAF Disruption Assay (IC50). In short, it runs like this:
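GMPPNP-loaded KRAS G12C (5 nM) preincubated with compound 20 min at room temperature in Tris pH 7.5 buffer with MgCl2, DTT and BSA. GST-RAF1 RBD (9 nM) then added for 20 min, and SA-Tb (0.25 nM) for 3 h. HTRF 520/495 ratio read; IC50 taken from the dose-response curve.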

Among the data in US20250263424A1, “KRAS INHIBITORS” (Bristol-Myers Squibb Company, priority 2022, published 2025) are IC50 values, retold here.

Where two headings read alike, the source gives them in different places.

Recombinant GMPPNP-loaded KRAS G12C (KRAS-G12C(ON), active form), sequence (P01116 1-188 isoform P01116-2 G12C): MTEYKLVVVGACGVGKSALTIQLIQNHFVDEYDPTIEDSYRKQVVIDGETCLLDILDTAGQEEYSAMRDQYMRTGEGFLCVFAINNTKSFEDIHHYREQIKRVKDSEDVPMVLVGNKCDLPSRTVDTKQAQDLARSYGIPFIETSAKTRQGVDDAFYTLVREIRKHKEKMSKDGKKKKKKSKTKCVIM

As a reminder, the IC50 is the concentration that inhibits the measured activity by half. Turning to `Cc1ccc2[nH]ncc2c1-c1ccc2c(N3CCN(C(=O)/C(F)=C/c4ccccn4)[C@@H](CC#N)C3)nc(OC[C@@H]3CCCN3C)nc2c1F` [Example 50, 2-((2S)-1-((Z)-2-fluoro-3-(pyridin-2-yl)acryloyl)-4-(8-fluoro-7-(5-methyl-1H-indazol-4-yl)-2-(((S)-1-methylpyrrolidin-2-yl)methoxy)quinazolin-4-yl)piperazin-2-yl)acetonitrile], the concentration for half-maximal inhibition (IC50) (values in nM) turned out to be 100 nM.

In the case of `CN1CCC[C@H]1COc1nc(N2CCN(C(=O)/C(F)=C/c3ccccn3)[C@@H](CC#N)C2)c2ccc(-c3cccc4cccc(Cl)c34)c(F)c2n1` [Example 37, 2-((S)-1-((Z)-2-fluoro-3-(pyridin-2-yl)acryloyl)-4-(8-fluoro-7-(8-chloronaphthalen-1-yl)-2-(((S)-1-methylpyrrolidin-2-yl)methoxy)quinazolin-4-yl)piperazin-2-yl)acetonitrile], the IC50 (values in nM) turned out to be 110 nM.

Consider `C#Cc1cccc2cccc(-c3ccc4c(N5CCN(C(=O)/C(F)=C/c6cnccn6)[C@@H](CC#N)C5)nc(OC[C@@]56CCCN5C[C@H](F)C6)nc4c3F)c12` [Example 87, 2-((S)-4-(7-(8-ethynylnaphthalen-1-yl)-8-fluoro-2-(((2R,7aS)-2-fluorotetrahydro-1H-pyrrolizin-7a(5H)-yl)methoxy)quinazolin-4-yl)-1-((Z)-2-fluoro-3-(pyrazin-2-yl)acryloyl)piperazin-2-yl)acetonitrile], for which, for the setting “values in nM”, the IC50 was 42 nM.

For the molecule `Cc1cc(N)nc(-c2c(Cl)cc3c(N4CC5CCC(C4)N5C(=O)/C(F)=C/c4ccccn4)nc(OC[C@@]45CCCN4C[C@H](F)C5)nc3c2F)c1C(F)(F)F` [Example 7, (Z)-1-((1R,5S)-3-((7M)-7-(6-amino-4-methyl-3-(trifluoromethyl)pyridin-2-yl)-6-chloro-8-fluoro-2-(((2R,7aS)-2-fluorotetrahydro-1H-pyrrolizin-7a(5H)-yl)methoxy)quinazolin-4-yl)-3,8-diazabicyclo[3.2.1]octan-8-yl)-2-fluoro-3-(pyridin-2-yl)prop-2-en-1-one], the IC50 (values given in μM) was determined as 2000 nM.

In the case of `Cc1cc(N)nc(-c2c(Cl)cc3c(N4CCC5C4CCN5C(=O)/C(F)=C/c4nccs4)nc(OC[C@]45CCCN4C[C@H](F)C5)nc3c2F)c1C(F)(F)F` (single isomer, unassigned) [Example 25, Isomer 2], under “values given in μM”, the IC50 was found to be 67600 nM.

For the molecule `C#Cc1c(F)ccc2cc(O)cc(-c3c(Cl)cc4c(N5CC6CCC(C5)N6C(=O)/C(F)=C/c5ccccn5)nc(OC[C@@H]5CCCN5C)nc4c3F)c12` (single isomer, unassigned) [Example 20, Isomer 1], the IC50 (values given in μM) came out at 16500 nM.

Take `CN1CCC[C@H]1COc1nc(N2CCN(C(=O)/C(F)=C/c3ncccn3)[C@@H](CC#N)C2)c2ccc(-c3cccc4cccc(Cl)c34)c(F)c2n1` [Example 38, 2-((S)-1-((Z)-2-fluoro-3-(pyrimidin-2-yl)acryloyl)-4-(8-fluoro-7-(8-chloronaphthalen-1-yl)-2-(((S)-1-methylpyrrolidin-2-yl)methoxy)quinazolin-4-yl)piperazin-2-yl)acetonitrile]: the 50% inhibitory concentration (IC50) (values in nM) is 130 nM.

Regarding `Cc1cc(N)nc(-c2c(Cl)cc3c(N4CC5CCC(C4)N5C(=O)/C(F)=C/c4nccs4)nc(OCC4(CN5CCCCC5)CC4)nc3c2F)c1C(F)(F)F` [Example 11, (Z)-1-((1R,5S)-3-((7M)-7-(6-amino-4-methyl-3-(trifluoromethyl)pyridin-2-yl)-6-chloro-8-fluoro-2-((1-(piperidin-1-ylmethyl)cyclopropyl)methoxy)quinazolin-4-yl)-3,8-diazabicyclo[3.2.1]octan-8-yl)-2-fluoro-3-(thiazol-2-yl)prop-2-en-1-one], the IC50 (values given in μM) was 5300 nM.

Regarding `Cc1cc(N)nc(-c2c(Cl)cc3c(N4CCC5C(C4)CN5C(=O)/C(F)=C/c4nccs4)nc(OC[C@]45CCCN4C[C@H](F)C5)nc3c2F)c1C(F)(F)F` (stereo partly drawn) [Example 16, (Z)-1-(3-((7M)-7-(6-amino-4-methyl-3-(trifluoromethyl)pyridin-2-yl)-6-chloro-8-fluoro-2-(((2R,7aR)-2-fluorotetrahydro-1H-pyrrolizin-7a(5H)-yl)methoxy)quinazolin-4-yl)-3,7-diazabicyclo[4.2.0]octan-7-yl)-2-fluoro-3-(thiazol-2-yl)prop-2-en-1-one], the IC50 (values given in μM) stood at 4200 nM.

Regarding `COc1ccc(Cl)cc1-c1ccc2c(N3CCN(C(=O)/C(F)=C/c4ccccn4)[C@@H](CC#N)C3)nc(OC[C@@H]3CCCN3C)nc2c1F` [Example 61, 2-((S)-4-(7-(5-chloro-2-methoxyphenyl)-8-fluoro-2-(((S)-1-methylpyrrolidin-2-yl)methoxy)quinazolin-4-yl)-1-((Z)-2-fluoro-3-(pyridin-2-yl)acryloyl)piperazin-2-yl)acetonitrile], the IC50 (values in nM) came to 2800 nM.

Regarding `Cc1ccc2[nH]ncc2c1-c1ccc2c(N3CCN(C(=O)/C(F)=C/c4nccs4)[C@@H](CC#N)C3)nc(OC[C@@H]3CCCN3C)nc2c1F` [Example 51, 2-((2S)-1-((Z)-2-fluoro-3-(thiazol-2-yl)acryloyl)-4-(8-fluoro-7-(5-methyl-1H-indazol-4-yl)-2-(((S)-1-methylpyrrolidin-2-yl)methoxy)quinazolin-4-yl)piperazin-2-yl)acetonitrile], the IC50 (values in nM) stood at 160 nM.

As for `Cc1cc(N)nc(-c2c(Cl)cc3c(N4C[C@H]5CC[C@@H]4[C@@H]5NC(=O)/C(F)=C/c4ccccn4)nc(OC[C@]45CCCN4C[C@H](F)C5)nc3c2F)c1C(F)(F)F` [Example 45, (2Z)-N-[(1R,4R,7R)-2-[(7M)-2-{[(2R,7aR)-2-fluoro-hexahydro-1H-pyrrolizin-7a-yl]methoxy}-7-[6-amino-4-methyl-3-(trifluoromethyl)pyridin-2-yl]-6-chloro-8-fluoroquinazolin-4-yl]-2-azabicyclo[2.2.1]heptan-7-yl]-2-fluoro-3-(pyridin-2-yl)prop-2-enamide], the IC50 (values in nM) amounted to 48 nM.

As for `Cc1cc(N)nc(-c2c(Cl)cc3c(N4CC5CCC4CN5C(=O)/C(F)=C/c4ccccn4)nc(OC[C@@H]4CCCN4C)nc3c2F)c1C(F)(F)F` (stereo partly drawn) [Example 6, (Z)-1-(5-((7M)-7-(6-amino-4-methyl-3-(trifluoromethyl)pyridin-2-yl)-6-chloro-8-fluoro-2-(((S)-1-methylpyrrolidin-2-yl)methoxy)quinazolin-4-yl)-2,5-diazabicyclo[2.2.2]octan-2-yl)-2-fluoro-3-(pyridin-2-yl)prop-2-en-1-one], the IC50 (values given in μM) came to 4900 nM.

For the molecule `CN1CCC[C@H]1COc1nc(N2CCN(C(=O)/C(F)=C/c3nccs3)CC2)c2ccc(-c3cc(O)cc4ccccc34)c(F)c2n1` [Example 29, (S,Z)-2-fluoro-1-(4-(8-fluoro-7-(3-hydroxynaphthalen-1-yl)-2-((1-methylpyrrolidin-2-yl)methoxy)quinazolin-4-yl)piperazin-1-yl)-3-(thiazol-2-yl)prop-2-en-1-one], the IC50 (values in nM) is 180 nM.

Take `CN1CCC[C@H]1COc1nc(N2CCN(C(=O)/C(F)=C/c3ccccn3)[C@@H](CC#N)C2)c2ccc(-c3cccc4cccc(C#N)c34)c(F)c2n1` [Example 79, 8-(4-((S)-3-(cyanomethyl)-4-((Z)-2-fluoro-3-(pyridin-2-yl)acryloyl)piperazin-1-yl)-8-fluoro-2-(((S)-1-methylpyrrolidin-2-yl)methoxy)quinazolin-7-yl)-1-naphthonitrile]: the concentration for half-maximal inhibition (IC50) (values in nM) came to 1600 nM.

For `Cc1cc(N)nc(-c2c(Cl)cc3c(N4CCC5C(CCN5C(=O)/C(F)=C/c5nccs5)C4)nc(OC[C@]45CCCN4C[C@H](F)C5)nc3c2F)c1C(F)(F)F` (single isomer, unassigned) [Example 26, Isomer 2], the IC50 (values given in μM) came out at 55200 nM.

Turning to `C#Cc1cccc2cccc(-c3ccc4c(N5CCN(C(=O)/C(F)=C/c6nccs6)C[C@@H]5C)nc(OC[C@@]56CCCN5C[C@H](F)C6)nc4c3F)c12` [Example 89, (Z)-1-((S)-4-(7-(8-ethynylnaphthalen-1-yl)-8-fluoro-2-(((2R,7aS)-2-fluorotetrahydro-1H-pyrrolizin-7a(5H)-yl)methoxy)quinazolin-4-yl)-3-methylpiperazin-1-yl)-2-fluoro-3-(thiazol-2-yl)prop-2-en-1-one], for the setting “values in nM”, the IC50 stood at 380 nM.

For `C#Cc1cccc2cccc(-c3ccc4c(N(C)[C@@H]5CCN(C(=O)/C(F)=C/c6nccs6)C5)nc(OC[C@@]56CCCN5C[C@H](F)C6)nc4c3F)c12` [Example 82, (Z)-1-((R)-3-((7-(8-ethynylnaphthalen-1-yl)-8-fluoro-2-(((2R,7aS)-2-fluorotetrahydro-1H-pyrrolizin-7a(5H)-yl)methoxy)quinazolin-4-yl)(methyl)amino)pyrrolidin-1-yl)-2-fluoro-3-(thiazol-2-yl)prop-2-en-1-one], the IC50 (values in nM) is 40 nM.

With `C#Cc1c(F)ccc2cc(O)cc(-c3ccc4c(N5C[C@H]6CC[C@@H](C5)N6C(=O)/C(F)=C/c5ncccn5)nc(OC[C@@H]5CCCN5C)nc4c3F)c12` [Example 30, (Z)-1-((1R,5S)-3-(7-(8-ethynyl-7-fluoro-3-hydroxynaphthalen-1-yl)-8-fluoro-2-(((S)-1-methylpyrrolidin-2-yl)methoxy)quinazolin-4-yl)-3,8-diazabicyclo[3.2.1]octan-8-yl)-2-fluoro-3-(pyrimidin-2-yl)prop-2-en-1-one], the IC50 (values given in μM) came out at 21300 nM.

`Cc1ccc2[nH]ncc2c1-c1ccc2c(N3CCN(C(=O)/C(F)=C/c4ccccn4)[C@@H](CC#N)C3)nc(OC[C@@]34CCCN3C[C@H](F)C4)nc2c1F` [Example 76, 2-((2S)-4-(8-fluoro-2-(((2R,7aS)-2-fluorotetrahydro-1H-pyrrolizin-7a(5H)-yl)methoxy)-7-(5-methyl-1H-indazol-4-yl)quinazolin-4-yl)-1-((Z)-2-fluoro-3-(pyridin-2-yl)acryloyl)piperazin-2-yl)acetonitrile]: for the setting “values in nM”, the IC50 came to 50 nM.
